The test system of the assay is Trichophyton mentagrophytes. Kind of assay: Antimicrobial activity against Trichophyton mentagrophytes by microbroth dilution method. Format: functional.

Each structure is given as a SMILES string. In brackets after ≈: the same amount, converted by molar mass.

Data on one compound can be found in ChEMBL document CHEMBL1159232, “Bipolal: anti-microalgal compound isolated as a candidate for marine antifouling produced by Bipolaris sp. F5206” (1995).

As a reminder, the MIC is the least concentration at which growth counts as inhibited. Lower therefore signals greater potency. `C=C(C=O)[C@]1(O)C[C@@]2(C)C(=CC1=O)C=C[C@H](OC(=O)/C=C/C=C/[C@@H](C)CC)[C@@H]2C` came in with an MIC of 1.58 µg/mL (≈ 3.96 µM).
